Drawing on BindingDB's records for doi:10.1038/304065a0 (Hoechst Pharmaceutical Research Laboratories, 1983), this text covers Ki for 8 compounds.

The structures appear in SMILES notation.

The target of this assay is Histamine H2 receptor (Cavia porcellus, UniProt P47747).
Sequence of Histamine H2 receptor (P47747 whole entry): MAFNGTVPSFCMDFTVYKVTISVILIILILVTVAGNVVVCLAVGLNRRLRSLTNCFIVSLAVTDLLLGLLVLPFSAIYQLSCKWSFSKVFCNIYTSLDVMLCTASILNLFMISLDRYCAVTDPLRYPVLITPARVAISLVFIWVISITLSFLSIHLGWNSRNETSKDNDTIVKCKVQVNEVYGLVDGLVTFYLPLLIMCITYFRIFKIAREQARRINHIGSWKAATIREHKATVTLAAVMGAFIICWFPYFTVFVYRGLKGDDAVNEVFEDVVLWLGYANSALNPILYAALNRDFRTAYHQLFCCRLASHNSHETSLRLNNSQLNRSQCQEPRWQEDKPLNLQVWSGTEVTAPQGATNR
As to `Cc1nc[nH]c1CCN` [2-(5-methyl-1H-imidazol-4-yl)ethan-1-amine], the Ki (usually a measure of affinity in units of concentration, obtained from inhibition or displacement) is greater than 10000 nM. The compound `CN/C([CH-][N+](=O)[O-])=[NH+]\CCSCc1ccc(CN(C)C)o1` gave a Ki of 390 nM. For `CNC(=S)NCCCc1cnc[nH]1`, the Ki was greater than 10000 nM.

In the case of `NC(N)=Nc1nc(CSCCC(N)=NS(N)(=O)=O)cs1`, the Ki was determined as 12 nM. In turn, `CN(C)CCCSC(=N)N` [[3-(carbamimidoylsulfanyl)propyl]dimethylamine] yielded a Ki greater than 10000 nM. `C/N=C(\S)NCCSCc1[nH]cnc1C` [CAS_34839-70-8] came in with an inhibitory constant (Ki) of 510 nM. `CNC(=S)NCCCCc1cnc[nH]1` [1-[4-(1H-imidazol-5-yl)butyl]-3-methylthiourea] displayed a Ki of 3000 nM. `Cc1[nH]cnc1CSCCNC(=N)NCCCc1c[nH]cn1` [2-[3-(1H-imidazol-5-yl)propyl]-1-(2-{[(5-methyl-1H-imidazol-4-yl)methyl]sulfanyl}ethyl)guanidine] returned a Ki of 63 nM.
